Test results as given in paper PMC12227560, “Total synthesis of a sorrentanone ester library and evaluation of its antimicrobial potential” (Scientific Reports, 2025).
In brackets after ≈: the same amount, converted by molar mass.

Assays:
[1] = tested on: E. coli NCTC9001; assay: Antimicrobial broth micro-dilution assay (MIC); assay type: cell-based; settings: Escherichia coli; E. coli NCTC9001; 24 h at 37 °C; highest tested concentration 250 µg/mL; read-out: Minimum inhibitory concentration (MIC)
From the text: (§1) 3. Bioactivity and Toxicity Assays
(§2) Antimicrobial assay: According to the standard broth micro-dilution assays, following the Standards of European Committee on Antimicrobial Susceptibility Testing (v 7.3.1: Method for the determination of broth dilution minimum inhibitory concentrations of antifungal agents for yeasts) for Candida spp., and according to the standard broth micro-dilution assays, recommended by the National Committee for Clinical Laboratory Standards (M07-A8) for bacteria MIC values of compounds were determinate. Compounds were dissolved in DMSO at a concentration of 50 mg/mL, and the highest tested concentration was 250 µg/mL. The inoculums were 1x10^5 colony forming units (CFU/mL), for Candida species, and bacteria species, 5x10^5 colony forming units (CFU/mL). The MIC value was recorded as the lowest concentration that inhibited the growth after 24 h at 37 °C. Additionally, 5 µL from each well of 96 well plates was transferred to Luria Agar (LA) plates for bacteria and Sabouraud agar (SAB) plates for Candida spp. and incubated for an additional 24 h at 37 °C, to determine MBC (Minimum bactericidal/fungicidal concentration) values. In Table 1. Are labeled compounds showing a difference in MBC and previously determined MIC values. […]

[2] = tested on: S. aureus ATCC25923; assay: Antimicrobial broth micro-dilution assay (MIC); assay type: cell-based; settings: Staphylococcus aureus; S. aureus ATCC25923; 24 h at 37 °C; highest tested concentration 250 µg/mL; read-out: Minimum inhibitory concentration (MIC)
From the text: as §1, §2

[3] = tested on: C. albicans ATCC10231; assay: Antimicrobial broth micro-dilution assay (MIC); assay type: cell-based; settings: Candida albicans; C. albicans ATCC10231; 24 h at 37 °C; highest tested concentration 250 µg/mL; read-out: Minimum inhibitory concentration (MIC)
From the text: as §1, §2

[4] = tested on: S. aureus MRSA; assay: Antimicrobial broth micro-dilution assay (MIC); assay type: cell-based; settings: Staphylococcus aureus; S. aureus MRSA; 24 h at 37 °C; highest tested concentration 250 µg/mL; read-out: Minimum inhibitory concentration (MIC)
From the text: as §1, §2

[5] = tested on: P. aeruginosa ATCC27853; assay: Antimicrobial broth micro-dilution assay (MIC); assay type: cell-based; settings: Pseudomonas aeruginosa; P. aeruginosa ATCC27853; 24 h at 37 °C; highest tested concentration 250 µg/mL; read-out: Minimum inhibitory concentration (MIC)
From the text: as §1, §2

[6] = tested on: B. subtilis ATCC6633; assay: Antimicrobial broth micro-dilution assay (MIC); assay type: cell-based; settings: Bacillus subtilis; B. subtilis ATCC6633; 24 h at 37 °C; highest tested concentration 250 µg/mL; read-out: Minimum inhibitory concentration (MIC)
From the text: as §1, §2

[7] = tested on: C. albicans ATCC 10231 hyphae formation; assay: Filamentation test on Candida (solid spider medium); assay type: cell-based, Candida albicans; settings: 0.5 times MIC; 120 h; C. albicans ATCC10231
Experimental: Filamentation test on Candida: Using solid composition, the effect of sorrentano ne […]
albicans cells from an overnight culture grown in Sabouraud dextrose broth medium at 37 °C with or without compounds were centrifuged for 10 minutes at maximum speed, and the pellet was washed several times with sterile PBS (phosphate -buffered saline). After it, the pellet was resuspended in 200 µL PBS, and 2 µL of cell suspension was poured over solid composition and incubated at 37 °C for 120 h. Morphological changes of C. albicans ATCC

[8] = tested on: ergosterol in C. albicans; assay: Ergosterol biosynthesis assay; assay type: cell-based, Candida albicans; settings: 0.5 MIC; Candida cells; UV profile
Experimental: Ergosterol biosynthesis assay: Ergosterol levels were measured according to the published procedure with some minor modifications. 10 Briefly, a sing le C. albicans colony from an overnight Sabouraud dextrose agar plate was used to inoculate 50 ml of Sabouraud dextrose broth containing 0.5 MIC concentrated compounds. Incubation was performed for 18 h at 37 °C on the rotary shaker at 180 rpm. Cells were harvested by centrifugation at 3000 rpm for 5 min and washed once with sterile distilled water. The net wet weight of the cell pellet was determined. Three milliliters of 25% alcoholic potassium hydroxide solution (25 g of KOH and 35 ml of sterile distill ed water, brought to 100 ml with 100% ethanol), was added to each pellet and vortex mixed for 1 min and incubated in an 85 °C water bath for 1 h. Tubes were cooled to room temperature and extraction of sterols was done with the addition of a mixture of 1 ml of sterile distilled water and 3 ml of n-heptane followed by vigorous vortex mixing for 3 min. The heptane layer was used for spectrophotometrically measuring ergosterol concentrations by scanning absorbance between 240 nm and 300 nm using Ultrospec 3300pro 573 (Amer sham Biosciences, Amersham, UK).

## CC1=C(O)C(=O)C(C)=C(C(=O)OCc2ccccc2)C1=O [compound 41]
[1]
  MIC: > 250 µg/mL
[2]
  MIC: 31.2 µg/mL (≈ 109 µM)
[3]
  MIC: 62.5 µg/mL (≈ 218 µM)
[4]
  MIC: 15.6 µg/mL (≈ 54.5 µM)
[5]
  MIC: > 250 µg/mL
[6]
  MIC: 15.6 µg/mL (≈ 54.5 µM)
[7]
  filamentation (in words): hardly observed
[8]
  reduction of total amount of ergosterol (in words): most potent in reducing the total amount of ergosterol

## CC1=C(O)C(=O)C(C)=C(C(=O)OCCCC(C)C)C1=O [compound 36]
[1]
  MIC: > 250 µg/mL
[2]
  MIC: 15.6 µg/mL (≈ 55.7 µM)
[3]
  MIC: 62.5 µg/mL (≈ 223 µM)
[4]
  MIC: 31.2 µg/mL (≈ 111 µM)
[5]
  MIC: > 250 µg/mL
[6]
  MIC: 31.2 µg/mL (≈ 111 µM)
[7]
  filamentation (in words): hardly observed
[8]
  reduction of total amount of ergosterol (in words): most potent in reducing the total amount of ergosterol
